Measurements published in patent US5200424A, “Use of 10-membered ring lactones as lipid regulators” (priority 1990, dated 1993).

How the values were obtained:
serum lipoproteins = assay: Lipoprotein fractionation by ultracentrifugation in rats (serum cholesterol, protein, triglycerides; hypolipemic effect); format: in vivo, Rat, male, strain: HOE WISKf (SPF 71); settings: for % Change compared with control, Protein LDL / % Change compared with control, Protein VLDL / % Change compared with control, Total cholesterol HDL / % Change compared with control, Total cholesterol LDL / % Change compared with control, Total cholesterol VLDL / % Change compared with control, Triglycerides VLDL / Cholesterol HDL/LDL Based on control / Cholesterol HDL/LDL: male rat, by gavage; for % Change compared with control, Protein LDL / % Change compared with control, Protein VLDL / % Change compared with control, Total cholesterol HDL / % Change compared with control, Total cholesterol LDL / % Change compared with control, Total cholesterol VLDL / % Change compared with control, Triglycerides VLDL: 7 administrations; for Cholesterol HDL/LDL Based on control: control 1.00; for Cholesterol HDL/LDL: control 3.75
Description: Male rats with an initial weight above 180 g received the test product of the formula I in polyethylene glycol 400 by gavage once a day (in the morning) (0.5 ml/100 g of body weight); the relevant control group received only the same amount of solvent. The last (7th) administration took place 24 hours before blood sampling and sacrifice. There was free access to feed and water during the test. Feed was withdrawn 24 hours before the retroorbital blood sampling, which took place under light ether anesthesia before and after the treatment period (that is to say on the 1st and 8th day). Serum glutamic-oxalate transaminase (SGOT), serum glutamic-pyruvic transaminase (SGPT), alkaline phosphatase (aP), bilirubin and creatinine were determined in the serum of each individual animal. […] Immediately after the blood sampling the animals were sacrificed by distortion of the spinal column. The livers were removed, and the relative liver weight was determined. In addition, the body weight gain and the feed consumption were investigated. The statistical analysis was carried out by Student's t test.
To analyze the serum lipoproteins, after the treatment period the serum of all rats in a group was pooled.

[1] = Serum enzymes, bilirubin and creatinine in rats; format: in vivo, Rat, male, strain: HOE WISKf (SPF 71); settings: for Bilirubin, Final, mean / Creatinine, Final, mean / Serum enzymes SGOT, Final, mean / Serum enzymes SGPT, Final, mean / Serum enzymes aP, Final, mean / Bilirubin, Initial, mean / Creatinine, Initial, mean / Serum enzymes SGOT, Initial, mean / Serum enzymes SGPT, Initial, mean / Serum enzymes aP, Initial, mean: male rat; for Bilirubin, Final, mean / Creatinine, Final, mean / Serum enzymes SGOT, Final, mean / Serum enzymes SGPT, Final, mean / Serum enzymes aP, Final, mean: after treatment (8th day); for Bilirubin, Initial, mean / Creatinine, Initial, mean / Serum enzymes SGOT, Initial, mean / Serum enzymes SGPT, Initial, mean / Serum enzymes aP, Initial, mean: before treatment (1st day)
Description: (§1) Male rats with an initial weight above 180 g received the test product of the formula I in polyethylene glycol 400 by gavage once a day (in the morning) (0.5 ml/100 g of body weight); the relevant control group received only the same amount of solvent. The last (7th) administration took place 24 hours before blood sampling and sacrifice. There was free access to feed and water during the test. Feed was withdrawn 24 hours before the retroorbital blood sampling, which took place under light ether anesthesia before and after the treatment period (that is to say on the 1st and 8th day). Serum glutamic-oxalate transaminase (SGOT), serum glutamic-pyruvic transaminase (SGPT), alkaline phosphatase (aP), bilirubin and creatinine were determined in the serum of each individual animal. The total glycerol was measured from the pooled serum of all animals in a group as measure of the triglycerides (Eggstein, M. Kreutz, F. H.: Klin. Wschr. 44, 262 and 267 (1966); Wahlefeld, A. W., in: H. O. Bergmeier: Methoden der enzymatischen Analyse (Methods of enzymatic analysis), 2nd Edition, Volume II, Verlag Chemie 1974, Page 1878). Immediately after the blood sampling the animals were sacrificed by distortion of the spinal column. The livers were removed, and the relative liver weight was determined. In addition, the body weight gain and the feed consumption were investigated. The statistical analysis was carried out by Student's t test.

[2] = test system: cholesterol biosynthesis in HEP-G2 cells; assay: Cholesterol biosynthesis inhibition in HEP-G2 liver cell cultures (14C-acetate); format: cell-based; settings: Homo sapiens, HepG2, standard products, 1 h preincubation, 3 h with (14C)acetate, read-out: IC50, inhibition of cholesterol biosynthesis
Description: Monolayers of HEP-G2 cells in liproprotein-free nutrient medium are preincubated with appropriate concentrations of the substances of the formula I to be tested for one hour. After addition of the […] biosynthesis precursor sodium (^14 C)acetate the incubation is continued for 3 hours. After this a portion of the cells is subjected to alkaline hydrolysis after addition of an internal standard of ^3 H-cholesterol. The lipids from the hydrolyzed cells are extracted with a chloroform/methanol mixture. This lipid mixture is, after addition of carrier cholesterol, fractionated by preparative thin-layer chromatography, the cholesterol band is stained and then isolated, and the amount of ^14 C-cholesterol formed from the ^14 C-precursor is determined by scintigraphy. Cellular protein was determined in an aliquot of the cells so that the amount of ^14 C-cholesterol formed from ^14 C-precursor per mg of cellular protein per unit time can be calculated. The control is used for comparison for the inhibitory effect of an added test product so that it is possible to state directly the inhibition of the cholesterol biosynthesis at a particular molar concentration of the test product in the medium. The integrity of the cell culture and the absence of cell damage owing to exposure to the product is assessed morphologically (light microscopy) and measured biochemically by determining the lactic dehydrogenase release into the incubation medium on aliquots of the cell culture.

[3] = Body weight, relative liver weight and feed consumption in rats; format: in vivo, Rat, male, strain: HOE WISKf (SPF 71); settings: for % Change from control, Body weight after / % Change from control, rel. feed consumption after: male rat, after treatment
Description: as §1

## CC[C@H](C)C(=O)O[C@H]1C[C@@H](C)C=C2C=C[C@H](C)[C@H](CC[C@@H]3C[C@@H](O)CC(=O)O3)[C@H]21 [Lovastatin, lovastatin]
Serum lipoproteins; 10 mg/kg/day
  % Change compared with control, Protein LDL: -16%
  % Change compared with control, Protein VLDL: -22%
  % Change compared with control, Total cholesterol HDL: -14%
  % Change compared with control, Total cholesterol LDL: -2%
  % Change compared with control, Total cholesterol VLDL: -32%
  % Change compared with control, Triglycerides VLDL: -15%
  Cholesterol HDL/LDL Based on control: 0.89
  Cholesterol HDL/LDL: 3.32
Serum lipoproteins; 50 mg/kg/day
  % Change compared with control, Protein LDL: -19%
  % Change compared with control, Protein VLDL: -40%
  % Change compared with control, Total cholesterol HDL: -15%
  % Change compared with control, Total cholesterol LDL: -26%
  % Change compared with control, Total cholesterol VLDL: -52%
  % Change compared with control, Triglycerides VLDL: -38%
  Cholesterol HDL/LDL Based on control: 1.14
  Cholesterol HDL/LDL: 4.29
Serum lipoproteins; 300 mg/kg/day
  % Change compared with control, Protein LDL: +5%
  % Change compared with control, Protein VLDL: -37%
  % Change compared with control, Total cholesterol HDL: -9%
  % Change compared with control, Total cholesterol LDL: +3%
  % Change compared with control, Total cholesterol VLDL: -49%
  % Change compared with control, Triglycerides VLDL: -34%
  Cholesterol HDL/LDL Based on control: 0.89
  Cholesterol HDL/LDL: 3.33
Serum lipoproteins; rat
  effect on LDL-cholesterol compared with the compound according to the invention: distinctly inferior
  effect on VLDL and HDL compared with the compound according to the invention: about identical
[1]; 10 mg/kg/day
  Bilirubin, Final, mean: 2.7 µmol/L
  Creatinine, Final, mean: 65 µmol/L
  Serum enzymes SGOT, Final, mean: 59 U/L
  Serum enzymes SGPT, Final, mean: 25 U/L
  Serum enzymes aP, Final, mean: 302 U/L
  Bilirubin, Initial, mean: 3.8 µmol/L
  Creatinine, Initial, mean: 60 µmol/L
  Serum enzymes SGOT, Initial, mean: 42 U/L
  Serum enzymes SGPT, Initial, mean: 31 U/L
  Serum enzymes aP, Initial, mean: 409 U/L
[1]; 50 mg/kg/day
  Bilirubin, Final, mean: 2.5 µmol/L
  Creatinine, Final, mean: 62 µmol/L
  Serum enzymes SGOT, Final, mean: 89 U/L
  Serum enzymes SGPT, Final, mean: 46 U/L
  Serum enzymes aP, Final, mean: 324 U/L
  Bilirubin, Initial, mean: 2.9 µmol/L
  Creatinine, Initial, mean: 60 µmol/L
  Serum enzymes SGOT, Initial, mean: 38 U/L
  Serum enzymes SGPT, Initial, mean: 31 U/L
  Serum enzymes aP, Initial, mean: 355 U/L
[1]; 300 mg/kg/day
  Bilirubin, Final, mean: 2.9 µmol/L
  Creatinine, Final, mean: 61 µmol/L
  Serum enzymes SGOT, Final, mean: 107 U/L
  Serum enzymes SGPT, Final, mean: 44 U/L
  Serum enzymes aP, Final, mean: 369 U/L
  Bilirubin, Initial, mean: 2.7 µmol/L
  Creatinine, Initial, mean: 64 µmol/L
  Serum enzymes SGOT, Initial, mean: 59 U/L
  Serum enzymes SGPT, Initial, mean: 32 U/L
  Serum enzymes aP, Initial, mean: 386 U/L
[1]; rat
  transaminase SGOT change: dose-dependent and distinctly pathological change
[2]
  IC50: 23 nM
[3]; 10 mg/kg/day
  % Change from control, Body weight after: +4%
  % Change from control, rel. feed consumption after: +8%
[3]; 50 mg/kg/day
  % Change from control, Body weight after: 0%
  % Change from control, rel. feed consumption after: +4%
[3]; 300 mg/kg/day
  % Change from control, Body weight after: +1%
  % Change from control, rel. feed consumption after: +1%

## CCOC(=O)C(C)(C)Oc1ccc(Cl)cc1 [Clofibrate, clofibrate]
Serum lipoproteins; 100 mg/kg/day
  % Change compared with control, Protein LDL: +2%
  % Change compared with control, Protein VLDL: +5%
  % Change compared with control, Total cholesterol HDL: -26%
  % Change compared with control, Total cholesterol LDL: -31%
  % Change compared with control, Total cholesterol VLDL: -46%
  % Change compared with control, Triglycerides VLDL: +2%
  Cholesterol HDL/LDL Based on control: 1.08
  Cholesterol HDL/LDL: 4.03
[3]; rat, in vivo
  relative liver weight: increased

## C[C@H](CCCC(C)(C)O)[C@H]1CC[C@H]2[C@@H]3CC=C4C[C@@H](O)CC[C@]4(C)[C@H]3CC[C@]12C [25-hydroxycholesterol]
[2]
  IC50: 230 nM
